Source: article PMC10669182, “Pyrazolo-triazolo-pyrimidine Scaffold as a Molecular Passepartout for the Pan-Recognition of Human Adenosine Receptors” (Biomolecules, 2023)
Like-named read-outs stand apart in the source and are kept apart here.

What was measured:
[1] = biological target: human A1 adenosine receptor; conditions: [3H]CCPA, geometric mean with 95% confidence limits, read-out: hA1 (Ki nM), cited from earlier work
[2] = biological target: human A3 adenosine receptor; conditions: [3H]NECA, geometric mean with 95% confidence limits, read-out: hA3 (Ki nM), cited from earlier work
[3] = biological target: human A2A adenosine receptor; conditions: [3H]NECA, geometric mean with 95% confidence limits, read-out: hA2A (Ki nM), cited from earlier work
[4] = biological target: T1, human A2B adenosine receptor (Homo sapiens, UniProt P29275); assay: Radioligand binding, displacement of [3H]ZM241385 at human A2B receptors expressed in CHO cells; conditions: 10 nM [3H]ZM241385, CHO cell membranes, 3 h room temperature; geometric mean with 95% confidence limits; reported for the first time; read-out: hA2B (Ki nM)
T1 construct: expressed in transfected cells; host or cells: CHO cells, stably transfected; membrane preparation
T1 sequence (P29275 1-332): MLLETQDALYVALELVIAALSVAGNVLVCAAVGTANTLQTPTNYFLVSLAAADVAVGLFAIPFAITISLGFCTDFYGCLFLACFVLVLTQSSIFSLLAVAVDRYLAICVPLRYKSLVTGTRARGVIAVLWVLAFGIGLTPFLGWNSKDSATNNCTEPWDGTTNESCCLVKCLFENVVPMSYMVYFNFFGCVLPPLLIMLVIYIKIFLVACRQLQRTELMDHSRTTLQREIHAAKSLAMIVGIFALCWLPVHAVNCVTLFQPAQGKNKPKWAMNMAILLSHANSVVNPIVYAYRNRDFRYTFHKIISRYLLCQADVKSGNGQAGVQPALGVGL
Experimental: All pharmacological methods followed the procedures described earlier. In brief, membranes for radioligand binding were prepared from CHO cells stably transfected with human adenosine receptor subtype (obtained as reported in reference) in a two-step procedure. In a first low-speed step (1000× g), cell fragments and nuclei were removed. The crude membrane fraction was sedimented from the supernatant at 100,000× g. The membrane pellet was resuspended in the buffer used for the respective binding experiments, frozen in liquid nitrogen, and stored at −80 °C.
Compounds were dissolved in DMSO and then diluted to the desired concentration in buffer, and at least 6 different concentrations were tested. DMSO in the final solution never exceeded 2%. For radioligand binding at A1 adenosine receptors, 1 nM [^3H]CCPA was used, whereas 30 and 10 nM [^3H]NECA were used for A2A and A3 receptors, respectively. Non-specific binding of [^3H]CCPA was determined in the presence of 1 mM theophylline; in the case of [^3H]NECA, 100 µM R-PIA was used. For radioligand binding assay of compounds 1–4 at A2B receptors, membranes (20 µg membrane protein) were incubated in a total volume of 200 µL (assay buffer: Tris/HCl pH 7.4, 10 mM MgCl2, 0.1% bovine serum albumin) with 10 nM [^3H]ZM241385. Non-specific binding of [^3H]ZM241385 was determined in the presence of 0.3 mM NECA. After 3 h at room temperature, samples were filtered and washed as described. Ki values from competition experiments were calculated with the program SCTFIT [32] and represented the mean of 3–6 replicates with 95% confidence limits.

hA2B adenosine receptor = biological target: hA2B adenosine receptor; design: method as in PMID 19501513, PMID 19908874; conditions: NECA (5 μM)-stimulated adenylyl cyclase, hA2B-CHO membranes; geometric mean with 95% confidence limits; cited from earlier work
[5] = CHO cell membranes, compounds 1-7

| SMILES | Ki ([1]; CHO cells, compounds 8-12) | Ki ([2]; CHO cells, compounds 8-12) | Ki ([3]; CHO cells, compounds 8-12) | Ki [4] | Ki [1, 5] | Ki [2, 5] | IC50 (hA2B adenosine receptor) | Ki [3, 5] |
| --- | --- | --- | --- | --- | --- | --- | --- | --- |
| CCCn1cc2c(nc(N)n3nc(-c4ccco4)nc23)n1 [Compound 10] | 10 nM | 408 nM | 2.51 nM | – | – | – | – | – |
| CCn1cc2c(nc(NC(=O)C(c3ccccc3)c3ccccc3)n3nc(-c4ccco4)nc23)n1 [Compound 2] | – | – | – | 18.3 nM | 156 nM | 0.98 nM | 745 nM | 131 nM |
| CC(C)CCn1cc2c(nc(NC(=O)C(c3ccccc3)c3ccccc3)n3nc(-c4ccco4)nc23)n1 [Compound 5] | – | – | – | – | 441 nM | 5.86 nM | > 10000 nM | 159 nM |
| CCCCn1cc2c(nc(N)n3nc(-c4ccco4)nc23)n1 [Compound 11] | 14 nM | 600 nM | 1.6 nM | – | – | – | – | – |
| Cn1cc2c(nc(NC(=O)C(c3ccccc3)c3ccccc3)n3nc(-c4ccco4)nc23)n1 [Compound 1] | – | – | – | 29.1 nM | 139 nM | 0.25 nM | 363 nM | 216 nM |
| Cn1cc2c(nc(NC(=O)Cc3cccs3)n3nc(-c4ccco4)nc23)n1 [Compound 7] | – | – | – | – | 444 nM | 5.26 nM | > 10000 nM | 56 nM |
| CCn1cc2c(nc(N)n3nc(-c4ccco4)nc23)n1 [Compound 9] | 5 nM | 331 nM | 1.95 nM | – | – | – | – | – |
| CC(C)CCn1cc2c(nc(N)n3nc(-c4ccco4)nc23)n1 [Compound 12] | 2 nM | 700 nM | – | – | – | – | – | – |
| Cn1cc2c(nc(N)n3nc(-c4ccco4)nc23)n1 [Compound 8] | 101 nM | 300 nM | 2.8 nM | – | – | – | – | – |
| CCCn1cc2c(nc(NC(=O)C(c3ccccc3)c3ccccc3)n3nc(-c4ccco4)nc23)n1 [Compound 3] | – | – | – | 13.3 nM | 80.2 nM | 0.93 nM | 491 nM | 46.5 nM |
| CCn1cc2c(nc(NC(=O)Cc3cccs3)n3nc(-c4ccco4)nc23)n1 [Compound 6] | – | – | – | – | 148 nM | 196 nM | > 10000 nM | 15.9 nM |
| CCCCn1cc2c(nc(NC(=O)C(c3ccccc3)c3ccccc3)n3nc(-c4ccco4)nc23)n1 [Compound 4] | – | – | – | – | 129 nM | 1.2 nM | 780 nM | 114 nM |
